According to US5595730A, “Lactate dehydrogenase inhibitors in cosmetic compositions” (priority 1996, dated 1997):
Read-outs that look alike come from different tables or passages of the source.

Key:
[1] = test system: Normal human epidermal keratinocytes (NHEK); assay: Keratinocyte proliferation (DNA content, fluorometric); assay type: cell-based; details: for activation at 313 µM / activation at 625 µM / activation at 1250 µM / activation at 2500 µM / activation at 5000 µM: Homo sapiens, NHEK, 72 h
Experimental: Normal human epidermal keratinocytes (NHEK) derived from neonatal foreskin were used for all experiments. Media were purchased from Clonetics Corp., San Diego, Calif. Cell stocks frozen in passage 2 were grown in Keratinocyte Growth Medium (KGM) and passaged when 70-80% confluent. Cells were seeded in 96 well plates (Corning) at a density of 7500 cells/well in KGM. After 24 hours, cells were rinsed and dosed with test compounds in 200 μl of Keratinocyte Basal Medium (KBM). Plates were incubated for three days at 37° C., 5% CO2. Cell proliferation was estimated by assaying for DNA content by a fluorometric method described by Rago et al. (Analytical Biochemistry, 191:31-34, 1990). Medium was removed and cells were rinsed with phosphate buffered saline solution. 100 μl of sterile distilled water was added to each well and plates were frozen at -70° C. for one and a half hours. Plates were thawed for one hour at which time 100 μl of a 20 ug/ml solution of Bisbenzimide H33258 fluorochrome (Calbiochem Corp., La Jolla, Calif.) was added to each well. The fluorochrome was prepared just prior to use in 10 mM Tris, 1 mM EDTA, 4M NaCI, pH 7.4. Plates were read in a Millipore Cytofluor fluorescent plate reader to quantify DNA (excitation 360 nm, emission 460 nm). Percent increase over control was calculated from blank-corrected readings as (treated-untreated)/(untreated)*100. Each data point in the Tables below represents a mean of 5 or 6 replicates.
The procedure of Example 2 was repeated except that various co-active ingredients were tested for their ability to stimulate keratinocyte proliferation.
The procedure of Example 2 was repeated to test the effect of combination of an LDH inhibitor with another carboxylic acid on keratinocyte proliferation.

procollagen 1 = assay: Assay for collagen synthesis (secreted procollagen 1 immunoassay, fibroblasts); details: actives 0.2 to 20 mM, serum-free medium, 48 hours
Experimental: Neonatal human dermal fibroblasts were purchased from Clonetics Corp., San Diego, Calif. All materials for cell culture were purchased from Life Technologies, N.Y. Cells were maintained in DMEM with 10% fetal bovine serum and used in passages 5-10. Confluent 96-well plates containing fibroblasts were treated with actives (0.2 to 20 mM) in serum-free medium for 48 hours. […] This was carried out in a BioDot SF apparatus according to the manufacturer's instructions (BioRad Labs, CA) and the blot was developed using a Vectastain Kit (PK6104, Vector Labs, CA) as per the manufacturer's directions. Color intensity was quantitated using an Ultroscan XL densitometer (Pharmacia LKB). Fold increase was calculated as (density of treated)/untreated.

[2] = test system: Fibroblast Lactate Dehydrogenase; assay: Fibroblast lactate dehydrogenase (LDH) inhibition, cell lysate; assay type: biochemical, human
Experimental: (§1) All reagents were purchased from Sigma Chemical Co., St. Louis, Mo., USA. Sigma procedure No. 500 was modified for our purposes. One mL of pyruvate (pH=7.5) substrate (Sigma […]-1) was added to a vial containing 1 mg NADH (Sigma 340-101). In a 96-well plate, the following components were added to each test well: 10 μl pyruvate/NADH mixture, and 10 μl cell lysate. For preparation cell lysates, neonatal human keratinocytes or fibroblasts (Clonetic Corp., San Diego, Calif.) were cultured in tissue culture plates (Corning, USA). Cells were scraped in PBS (pH=7.4) and this solution was used as a source of L-lactate dehydrogenase. If such cell lysate was not available, a commercial preparation of L-lactic dehydrogenase (E.C.1.1.1.27), Sigma L9889, from porcine heart could be used in place of the cell lysate. For positive control, the inhibitor was replaced with 10 μl of PBS. For blank determination, the lysate or enzyme was replaced with […]. After mixing, the plate was incubated for 30 minutes at 37° C. Then 20 μl of color reagent (Sigma 505-2) was added to each well. After 20 minutes at room temperature, 150 μl of 0.4N NaOH was added, and the plate was read for absorbance at 490 nm in a Dynatech MR 7000 Microplate Reader. To calculate % inhibition, the control activity (CA) was first determined by subtracting the absorbance of the positive control from the blank. Then the activity in the presence of the inhibitor (IA) was calculated by subtracting the appropriate absorbance from the blank. % Inhibition was then calculated as: ((CA-IA)/CA)*100.

[3] = test system: Keratinocyte Lactate Dehydrogenase; assay: Keratinocyte lactate dehydrogenase (LDH) inhibition, cell lysate; assay type: biochemical, human
Experimental: as §1

[4] = Table 8, single agent alone, 0.156 mM
[5] = Table 8, single agent alone, 0.313 mM
[6] = Table 8, single agent alone, 0.625 mM
[7] = Table 8, single agent alone, 1.25 mM
[8] = Table 8, single agent alone, 2.5 mM
[9] = Table 8, single agent alone, 5.0 mM
[10] = Table 3, 0.313 mM, three days, read-out: Keratinocyte Proliferation (% increase over control)
[11] = Table 3, 0.625 mM, three days, read-out: Keratinocyte Proliferation (% increase over control)
[12] = Table 3, 1.25 mM, three days, read-out: Keratinocyte Proliferation (% increase over control)
[13] = Table 3, 2.5 mM, three days, read-out: Keratinocyte Proliferation (% increase over control)
[14] = Table 3, 5 mM, three days, read-out: Keratinocyte Proliferation (% increase over control)

Molecule: O=C(O)CCC(=O)O [Succinate]
- Keratinocyte proliferation, % Increase Over Control [1, 4]: 48%
- Keratinocyte proliferation, % Increase Over Control [1, 5]: 48%
- Keratinocyte proliferation, % Increase Over Control [1, 6]: 39%
- Keratinocyte proliferation, % Increase Over Control [1, 7]: 51%
- Keratinocyte proliferation, % Increase Over Control [1, 8]: 58%
- Keratinocyte proliferation, % Increase Over Control [1, 9]: 0%
- Collagen Synthesis, Maximum fold over Control (procollagen 1): 2.8 fold

Molecule: C[C@H](O)C(=O)O [L-lactate]
- Fibroblast Lactate Dehydrogenase Inhibition (% Inhibition) ([2]; 0.625 mM): 0%
- Fibroblast Lactate Dehydrogenase Inhibition (% Inhibition) ([2]; 1.25 mM): 0%
- Fibroblast Lactate Dehydrogenase Inhibition (% Inhibition) ([2]; 2.5 mM): 0%
- Fibroblast Lactate Dehydrogenase Inhibition (% Inhibition) ([2]; 5 mM): 0%

Molecule: O=C(O)C(=O)O [Oxalate]
- activation at 313 µM ([1]; read-out: Keratinocyte Proliferation (% increase over control), Table 3, 0.313 mM, three days): 18%
- activation at 625 µM ([1]; read-out: Keratinocyte Proliferation (% increase over control), Table 3, 0.625 mM, three days): 27%
- activation at 1250 µM ([1]; read-out: Keratinocyte Proliferation (% increase over control), Table 3, 1.25 mM, three days): 2%
- activation at 2500 µM ([1]; read-out: Keratinocyte Proliferation (% increase over control), Table 3, 2.5 mM, three days): 0%
- activation at 5000 µM ([1]; read-out: Keratinocyte Proliferation (% increase over control), Table 3, 5 mM, three days): 0%
- Fibroblast Lactate Dehydrogenase Inhibition (% Inhibition) ([2]; 0.625 mM): 54%
- Fibroblast Lactate Dehydrogenase Inhibition (% Inhibition) ([2]; 1.25 mM): 71%
- Fibroblast Lactate Dehydrogenase Inhibition (% Inhibition) ([2]; 2.5 mM): 85%
- Fibroblast Lactate Dehydrogenase Inhibition (% Inhibition) ([2]; 5 mM): 89%
- Keratinocyte Lactate Dehydrogenase Inhibition (% Inhibition) ([3]; 0.625 mM): 39%
- Keratinocyte Lactate Dehydrogenase Inhibition (% Inhibition) ([3]; 1.25 mM): 58%
- Keratinocyte Lactate Dehydrogenase Inhibition (% Inhibition) ([3]; 2.5 mM): 76%
- Keratinocyte Lactate Dehydrogenase Inhibition (% Inhibition) ([3]; 5 mM): 87%

Molecule: O=C(O)C[C@H](O)C(=O)O [L-malate]
- Fibroblast Lactate Dehydrogenase Inhibition (% Inhibition) ([2]; 0.625 mM): 0%
- Fibroblast Lactate Dehydrogenase Inhibition (% Inhibition) ([2]; 1.25 mM): 0%
- Fibroblast Lactate Dehydrogenase Inhibition (% Inhibition) ([2]; 2.5 mM): 0%
- Fibroblast Lactate Dehydrogenase Inhibition (% Inhibition) ([2]; 5 mM): 0%

Molecule: O=C(O)C(=O)C(=O)O [Ketomalonate]
- activation at 313 µM [1, 10]: 23%
- activation at 625 µM [1, 11]: 10%
- activation at 1250 µM [1, 12]: 0%
- activation at 2500 µM [1, 13]: 0%
- activation at 5000 µM [1, 14]: 0%
- Keratinocyte proliferation, % Increase Over Control ([1]; Table 7, single agent alone, 0.156 mM): 20%
- Keratinocyte proliferation, % Increase Over Control ([1]; Table 7, single agent alone, 0.313 mM): 48%
- Keratinocyte proliferation, % Increase Over Control ([1]; Table 7, single agent alone, 0.625 mM): 50%
- Keratinocyte proliferation, % Increase Over Control ([1]; Table 7, single agent alone, 1.25 mM): 59%
- Keratinocyte proliferation, % Increase Over Control ([1]; Table 7, single agent alone, 2.5 mM): 45%
- Keratinocyte proliferation, % Increase Over Control ([1]; Table 7, single agent alone, 5.0 mM): 20%

Molecule: O=C(O)C(O)C(=O)O [Tartronate]
- activation at 313 µM [1, 10]: 37%
- activation at 625 µM [1, 11]: 45%
- activation at 1250 µM [1, 12]: 51%
- activation at 2500 µM [1, 13]: 50%
- activation at 5000 µM [1, 14]: 17%
- Keratinocyte proliferation, % Increase Over Control [1, 4]: 44%
- Keratinocyte proliferation, % Increase Over Control [1, 5]: 69%
- Keratinocyte proliferation, % Increase Over Control [1, 6]: 58%
- Keratinocyte proliferation, % Increase Over Control [1, 7]: 67%
- Keratinocyte proliferation, % Increase Over Control [1, 8]: 76%
- Keratinocyte proliferation, % Increase Over Control [1, 9]: 21%

Molecule: O=C(O)CO [Glycolate]
- Fibroblast Lactate Dehydrogenase Inhibition (% Inhibition) ([2]; 0.625 mM): 0%
- Fibroblast Lactate Dehydrogenase Inhibition (% Inhibition) ([2]; 1.25 mM): 0%
- Fibroblast Lactate Dehydrogenase Inhibition (% Inhibition) ([2]; 2.5 mM): 0%
- Fibroblast Lactate Dehydrogenase Inhibition (% Inhibition) ([2]; 5 mM): 0%

Molecule: c1cn[nH]c1 [Pyrazole]
- Fibroblast Lactate Dehydrogenase Inhibition (% Inhibition) ([2]; 0.625 mM): 0%
- Fibroblast Lactate Dehydrogenase Inhibition (% Inhibition) ([2]; 1.25 mM): 0%
- Fibroblast Lactate Dehydrogenase Inhibition (% Inhibition) ([2]; 2.5 mM): 0%
- Fibroblast Lactate Dehydrogenase Inhibition (% Inhibition) ([2]; 5 mM): 0%

Molecule: O=CC(=O)O [Glyoxylate]
- activation at 313 µM [1, 10]: 33%
- activation at 625 µM [1, 11]: 36%
- activation at 1250 µM [1, 12]: 9%
- activation at 2500 µM [1, 13]: 0%
- activation at 5000 µM [1, 14]: 0%

Molecule: C[C@@H](O)C(=O)O [D-lactate]
- Fibroblast Lactate Dehydrogenase Inhibition (% Inhibition) ([2]; 0.625 mM): 0%
- Fibroblast Lactate Dehydrogenase Inhibition (% Inhibition) ([2]; 1.25 mM): 0%
- Fibroblast Lactate Dehydrogenase Inhibition (% Inhibition) ([2]; 2.5 mM): 0%
- Fibroblast Lactate Dehydrogenase Inhibition (% Inhibition) ([2]; 5 mM): 0%

Molecule: O=C(O)CC(=O)O [Malonate]
- Fibroblast Lactate Dehydrogenase Inhibition (% Inhibition) ([2]; 0.625 mM): 0%
- Fibroblast Lactate Dehydrogenase Inhibition (% Inhibition) ([2]; 1.25 mM): 0%
- Fibroblast Lactate Dehydrogenase Inhibition (% Inhibition) ([2]; 2.5 mM): 0%
- Fibroblast Lactate Dehydrogenase Inhibition (% Inhibition) ([2]; 5 mM): 0%

Molecule: Methylpyrazole
- Fibroblast Lactate Dehydrogenase Inhibition (% Inhibition) ([2]; 0.625 mM): 0%
- Fibroblast Lactate Dehydrogenase Inhibition (% Inhibition) ([2]; 1.25 mM): 0%
- Fibroblast Lactate Dehydrogenase Inhibition (% Inhibition) ([2]; 2.5 mM): 0%
- Fibroblast Lactate Dehydrogenase Inhibition (% Inhibition) ([2]; 5 mM): 0%

Molecule: NCC(=O)O [Glycinate]
- Fibroblast Lactate Dehydrogenase Inhibition (% Inhibition) ([2]; 0.625 mM): 0%
- Fibroblast Lactate Dehydrogenase Inhibition (% Inhibition) ([2]; 1.25 mM): 0%
- Fibroblast Lactate Dehydrogenase Inhibition (% Inhibition) ([2]; 2.5 mM): 0%
- Fibroblast Lactate Dehydrogenase Inhibition (% Inhibition) ([2]; 5 mM): 0%
